Tests used:
RavS^ΔN(R656A) = test: in vitro phosphotransfer assay with Arg656-substituted RavS; assay type: biochemical, Xanthomonas campestris pv. campestris; conditions: 15 or 100 μM c-di-GMP
Method: Fig 6 Arg^656 in the CA domain of RavS is a key residue for c-di-GMP binding. (a, b) c-di-GMP binds to the DHp-CA domain of RavS. PAS-A, PAS-B and DHp-CA in (a), and DHp and CA domains of RavS in (b), were purified and the interaction with c-di-GMP was measured by MST. Each assay was repeated three times. Standard deviations are shown. (c) Molecular docking model of the interaction between c-di-GMP and DHp-CA of RavS. c-di-GMP is shown as a ball-and-stick model and DHp-CA is shown in ribbon representation. (d) Schematic view of the predicted docking site between c-di-GMP and DHp-CA. Potential hydrogen bonds are indicated as blue dashed lines. Autodock software was used to predict the interaction. […] Ten recombinant proteins of the DHp-CA region, each containing a substitution of a putative essential residue involved in c-di-GMP binding, were used in the MST assay to quantify the Kd value of RavS–c-di-GMP binding. fl-c-di-GMP was used in the MST assay. […] The reactions were terminated with 5× SDS loading buffer and the products were separated by 12% SDS-PAGE, exposed to a phosphor screen and analysed by Typhoon FLA7000. […]
An in vitro autophosphorylation assay was conducted as described in our previous study. […] After electrophoresis, gels were exposed to a phosphor screen (GE Healthcare) and the autoradiographic signals were detected by a Typhoon FLA7000 (GE Healthcare).

DHp-CA^R656A = target: T1, DHp-CA^R656A (Xanthomonas campestris pv. campestris, UniProt Q8P9A6, R656A); test: microscale thermophoresis (MST) binding; conditions: compared with DHp-CA protein
T1 sequence (Q8P9A6 464-697 R656A): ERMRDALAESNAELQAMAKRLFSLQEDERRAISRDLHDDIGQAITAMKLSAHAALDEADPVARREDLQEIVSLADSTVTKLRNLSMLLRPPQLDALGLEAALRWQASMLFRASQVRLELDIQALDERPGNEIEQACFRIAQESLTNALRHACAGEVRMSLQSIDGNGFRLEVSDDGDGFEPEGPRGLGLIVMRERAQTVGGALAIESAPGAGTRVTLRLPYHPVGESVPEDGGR
Method: (§1) Fig 6 Arg^656 in the CA domain of RavS is a key residue for c-di-GMP binding. (a, b) c-di-GMP binds to the DHp-CA domain of RavS. PAS-A, PAS-B and DHp-CA in (a), and DHp and CA domains of RavS in (b), were purified and the interaction with c-di-GMP was measured by MST. Each assay was repeated three times. Standard deviations are shown. (c) Molecular docking model of the interaction between c-di-GMP and DHp-CA of RavS. c-di-GMP is shown as a ball-and-stick model and DHp-CA is shown in ribbon representation. (d) Schematic view of the predicted docking site between c-di-GMP and DHp-CA. Potential hydrogen bonds are indicated as blue dashed lines. Autodock software was used to predict the interaction. (e) Effect of amino acid substitutions on RavS–c-di-GMP binding. Ten recombinant proteins of the DHp-CA region, each containing a substitution of a putative essential residue involved in c-di-GMP binding, were used in the MST assay to quantify the Kd value of RavS–c-di-GMP binding. fl-c-di-GMP was used in the MST assay. Each experiment was repeated three times. […] The reactions were terminated with 5× SDS loading buffer and the products were separated by 12% SDS-PAGE, exposed to a phosphor screen and analysed by Typhoon FLA7000. […]
(§2) The interaction between c-di-GMP nucleotides and various proteins was measured by using MST with a fluorescein-labelled c-di-GMP (2′-Fluo-AHC-c-di-GMP, abbreviated as fl-c-di-GMP; 2′-Fluo-AHC-c-di-AMP, fl-c-di-AMP; 2′-Fluo-AHC-cGMP, fl-cGMP; Biolog, Germany). These chemicals contain carboxyfluorescein that has excitation and emission wavelengths of 497 nm and 520 nm, respectively, which can be detected directly by a MST instrument. […] Fluorescence intensity due to thermophoresis was recorded using the blue channel optics of the instrument (λex = 470 ± 15 nm, λem = 520 ± 10 nm) during a 30 s period of infrared laser heating at 80% of the maximum laser power, followed by a 5 s cooling period. […]

CA domain of RavS = CA domain of RavS (Xanthomonas campestris pv. campestris, UniProt Q8P9A6); test: microscale thermophoresis (MST) binding; conditions: read-out: dissociation constant (Kd)
Method: as §1, §2

SMILES	stimulation of phosphotransferase activity of RavS^ΔN(R656A)~P towards RavR^ΔEAL (RavS^ΔN(R656A))	fold decrease in binding affinity (DHp-CA^R656A)	Kd (CA domain of RavS)
Nc1nc2c(ncn2[C@@H]2O[C@@H]3COP(=O)(O)O[C@H]4[C@@H](O)[C@H](n5cnc6c(=O)[nH]c(N)nc65)O[C@@H]4COP(=O)(O)O[C@H]3[C@H]2O)c(=O)[nH]1 [c-di-GMP, Cyclic di-GMP]	failed to stimulate	10 fold	
Nc1nc2c(ncn2[C@@H]2O[C@@H]3COP(=O)(O)O[C@H]4[C@@H](OC(=O)NCCCCCCNC(=O)c5ccc6c(c5)C(=O)OC65c6ccc(O)cc6Oc6cc(O)ccc65)[C@H](n5cnc6c(=O)[nH]c(N)nc65)O[C@@H]4COP(=O)(O)O[C@H]3[C@H]2O)c(=O)[nH]1 [fl-c-di-GMP, 2′-Fluo-AHC-c-di-GMP]			17.1 ± 3.78 µM

— PMC6707612, “Cyclic-di-GMP binds to histidine kinase RavS to control RavS-RavR phosphotransfer and regulates the bacterial lifestyle transition between virulence and swimming” (PLoS Pathogens, 2019)
